Reference: article PMC3252867, “Marilones A–C, phthalides from the sponge-derived fungus Stachylidium sp” (Beilstein Journal of Organic Chemistry, 2011)
Where two headings read alike, the source gives them in different places. One block for each compound: values may come before it.

How the values were obtained:
Assay in all cases: cells
Set-up in all cases: antiproliferative activity in human cancer cell lines, growth inhibition corrected for starting population (GI50)
Conditions in all cases: Homo sapiens
NCI-H460 = tested on: NCI-H460
MCF7 = tested on: MCF7
SF268 = tested on: SF268

GI50 (NCI-H460; NCI-H460, read-out: GI50 (1)): 42.9 µM
GI50 (MCF7; MCF7, read-out: GI50 (1)): 28.8 µM
Structure (SMILES): COc1c(C)c(OC/C=C(\C)CCC=C(C)C)cc2c1C(=O)O[C@H]2C (racemic) [compound 1, Marilone A]
GI50 (SF268; SF-268, read-out: GI50 (1)): 38.4 µM

GI50 (NCI-H460; NCI-H460, read-out: GI50 Etoposide): 0.4 µM
GI50 (MCF7; MCF7, read-out: GI50 Etoposide): 22.8 µM
Structure (SMILES): COc1cc([C@@H]2c3cc4c(cc3[C@@H](O[C@@H]3O[C@@H]5CO[C@@H](C)O[C@H]5[C@H](O)[C@H]3O)[C@H]3COC(=O)[C@H]23)OCO4)cc(OC)c1O [Etoposide]
GI50 (SF268; SF-268, read-out: GI50 Etoposide): 7.7 µM

GI50 (NCI-H460; NCI-H460, read-out: GI50 (3)): 31 µM
GI50 (MCF7; MCF7, read-out: GI50 (3)): 20 µM
Structure (SMILES): COc1c(C)c(OC/C=C(\C)CCC=C(C)C)cc2c1COC2=O [compound 3, Marilone C]
GI50 (SF268; SF-268, read-out: GI50 (3)): 28.9 µM
